Assay results taken from ChEMBL document CHEMBL3039007, “Structure-based identification of OATP1B1/3 inhibitors” (Mol Pharmacol, 2013).

Legend:
[1] = target: T1, Solute carrier organic anion transporter family member 1B1 (Homo sapiens, UniProt Q9Y6L6); details: chinese hamster, cho, 10 µM
T1 sequence (Q9Y6L6 whole entry): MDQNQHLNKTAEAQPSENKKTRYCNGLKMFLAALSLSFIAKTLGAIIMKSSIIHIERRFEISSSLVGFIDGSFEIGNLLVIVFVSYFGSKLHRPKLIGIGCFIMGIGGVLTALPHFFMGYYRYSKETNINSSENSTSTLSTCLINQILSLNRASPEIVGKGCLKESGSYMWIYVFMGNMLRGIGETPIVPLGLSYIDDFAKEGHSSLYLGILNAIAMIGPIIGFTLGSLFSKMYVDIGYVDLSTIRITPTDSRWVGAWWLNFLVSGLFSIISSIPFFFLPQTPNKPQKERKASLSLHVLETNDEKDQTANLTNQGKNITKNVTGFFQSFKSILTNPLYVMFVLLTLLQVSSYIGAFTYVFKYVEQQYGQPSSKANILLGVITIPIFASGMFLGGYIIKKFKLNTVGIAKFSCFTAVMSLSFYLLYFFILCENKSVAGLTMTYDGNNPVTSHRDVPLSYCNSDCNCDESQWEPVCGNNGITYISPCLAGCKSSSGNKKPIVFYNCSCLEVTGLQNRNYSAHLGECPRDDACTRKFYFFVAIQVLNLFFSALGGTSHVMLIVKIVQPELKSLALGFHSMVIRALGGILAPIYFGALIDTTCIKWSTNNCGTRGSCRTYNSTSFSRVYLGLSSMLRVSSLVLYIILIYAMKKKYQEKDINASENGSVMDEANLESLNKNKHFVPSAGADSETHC

[2] = target: T2, Solute carrier organic anion transporter family member 1B3 (Homo sapiens, UniProt Q9NPD5); details: chinese hamster, cho, 10 µM
T2 sequence (Q9NPD5 whole entry): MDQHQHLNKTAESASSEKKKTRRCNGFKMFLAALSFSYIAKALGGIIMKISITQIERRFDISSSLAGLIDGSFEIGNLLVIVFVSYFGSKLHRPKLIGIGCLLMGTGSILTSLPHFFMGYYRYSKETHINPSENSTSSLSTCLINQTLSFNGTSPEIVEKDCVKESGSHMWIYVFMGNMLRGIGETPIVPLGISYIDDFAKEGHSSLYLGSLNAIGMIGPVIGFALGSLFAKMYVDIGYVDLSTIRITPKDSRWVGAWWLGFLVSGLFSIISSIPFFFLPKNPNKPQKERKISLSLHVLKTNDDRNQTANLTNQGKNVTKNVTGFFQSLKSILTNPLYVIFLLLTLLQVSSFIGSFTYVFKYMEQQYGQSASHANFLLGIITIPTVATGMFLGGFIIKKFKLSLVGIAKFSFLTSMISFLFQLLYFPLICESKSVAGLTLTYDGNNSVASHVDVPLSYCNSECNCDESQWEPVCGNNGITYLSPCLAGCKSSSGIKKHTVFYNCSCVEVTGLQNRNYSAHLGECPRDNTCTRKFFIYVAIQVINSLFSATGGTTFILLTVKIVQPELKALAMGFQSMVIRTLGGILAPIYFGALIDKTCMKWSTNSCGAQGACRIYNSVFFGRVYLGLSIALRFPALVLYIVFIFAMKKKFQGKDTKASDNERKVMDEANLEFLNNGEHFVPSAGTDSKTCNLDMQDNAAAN

Row | SMILES | residual activity [1] [%] | residual activity [2] [%]
1 | O=c1c(-c2ccc(O)cc2)coc2cc(O)ccc12 [DAIDZEIN] | 139.3 | 103.8
2 | C=CC(C1=CC(=O)C(OC)=CC1=O)c1ccc(O)cc1 (stereo unspecified) [DALBERGIONE, 4-METHOXY-4'-HYDROXY-] | 114.1 | 246.6
3 | C=CC(C1=CC(=O)C=CC1=O)c1ccccc1 (stereo unspecified) [DALBERGIONE] | 72.19 | 269.8
4 | C#C[C@]1(O)CC[C@H]2[C@@H]3CCC4=Cc5oncc5C[C@]4(C)[C@H]3CC[C@@]21C [DANAZOL] | 80.9 | 95.7
5 | O=C1CN(/N=C/c2ccc(-c3ccc([N+](=O)[O-])cc3)o2)C(=O)[N-]1.[Na+] [DANTROLENE SODIUM] | 111.7 | 114.3
6 | O=c1ccc2ccc(O)c(O)c2o1 [DAPHNETIN] | 66.34 | 94.36
7 | Nc1ccc(S(=O)(=O)c2ccc(N)cc2)cc1 [DAPSONE] | 78.21 | 84.17
8 | CN(C)C(=O)Nc1ccc(Cl)c(Cl)c1 [DCMU] | 105.4 | 99
9 | CC1(C)C(=O)C=C[C@]2(C)[C@H]3CC[C@@]4(C)[C@H](c5ccoc5)OC(=O)[C@H]5O[C@]54[C@]3(C)C(=O)C[C@@H]12 [DEACETOXY-7-OXOGEDUNIN] | 40.28 | 85.14
10 | CC1(C)C(=O)C=C[C@]2(C)[C@H]3CC[C@@]4(C)[C@H](c5ccoc5)OC(=O)[C@H]5O[C@]54[C@]3(C)[C@H](O)C[C@@H]12 [DEACETYLGEDUNIN] | 74.35 | 60.92
11 | CC(=O)N(O)CCCCCNC(=O)CCC(=O)N(O)CCCCCNC(=O)CCC(=O)N(O)CCCCCN.CS(=O)(=O)O [DEFEROXAMINE MESYLATE] | 116.4 | 98.92
12 | COc1cc2c(cc1OC)[C@@H]1C(=O)c3ccc4c(c3O[C@@H]1CO2)C=CC(C)(C)O4 [DEGUELIN] | 99.89 | 75.69
13 | CC(C)c1ccc2c(c1)CC[C@H]1[C@](C)(C(N)=O)CCC[C@]21C [DEHYDROABIETAMIDE] | 81.19 | 106.2
14 | C=CCCCCCCCCCCC/C=C/C(O)COC(C)=O (stereo unspecified) [DEHYDROAVOCATIN-1-ACETATE] | 134.1 | 107.3
15 | C[C@H](CCC(=O)O)[C@H]1CC[C@H]2[C@@H]3C(=O)C[C@@H]4CC(=O)CC[C@]4(C)[C@H]3CC(=O)[C@]12C [DEHYDROCHOLIC ACID] | 80.16 | 88.23
16 | COc1cc2c(cc1OC)-c1c(oc3c4c(ccc3c1=O)OC(C(C)C)C4)CO2 (stereo unspecified) [DEHYDRODIHYDROROTENONE] | 89.82 | 95.69
17 | CC(=O)O[C@H]1CC[C@@]2(C)C(=CC[C@@H]3[C@@H]2CC[C@]2(C)C(=O)CC[C@@H]32)C1 [DEHYDROEPIANDROSTERONE ACETATE] | 97.61 | 140.4
18 | C=C(C)[C@H]1Cc2c(ccc3c(=O)c4c(oc23)COc2cc(OC)c(OC)cc2-4)O1 [DEHYDROROTENONE] | 113.5 | 92.82
19 | COc1ccc2c(c1)OCc1c-2oc2cc(OC)ccc12 [DEHYDROVARIABILIN] | 136.9 | 89.07
20 | CCN1C[C@]2(C)CC[C@H](OC)[C@@]34C1[C@]1(OCO[C@@]15C[C@H](OC)[C@H]1C[C@]3(O)[C@@H]5[C@H]1OC)[C@@H](OC(C)=O)[C@H]24 [DELTALINE] | 88.11 | 103.5
21 | CN(C)[C@@H]1C(O)=C(C(N)=O)C(=O)[C@@]2(O)C(O)=C3C(=O)c4c(O)ccc(Cl)c4[C@@H](O)[C@H]3C[C@@H]12.Cl [DEMECLOCYCLINE HYDROCHLORIDE] | 104.7 | 90.61
22 | Nc1ncnc2c1ncn2[C@H]1C[C@H](O)[C@@H](CO)O1 [DEOXYADENOSINE] | 112.3 | 106.4

Row | SMILES | residual activity [1] [%] | residual activity [2] [%]
23 | CC1(C)C2CC(=O)O[C@@]3(C)C4=CC(=O)O[C@@H](c5ccoc5)[C@]4(C)CCC3[C@@]2(C)C=C[C@H]1O (stereo partly specified) [DEOXYANDIROBIN LACTONE] | 29.53 | 53.06
24 | C=C1C2=CC(=O)O[C@@H](c3ccoc3)[C@]2(C)CCC1[C@@]1(C)C=CC(=O)C(C)(C)[C@@H]1CC(=O)OC (stereo partly specified) [DEOXYANDIROBIN] | 27.69 | 42.8
25 | CC(=O)O[C@@H]1C=C[C@]2(C)C(C[C@@H](OC(C)=O)[C@]3(C)C4=CC(=O)O[C@H](c5ccoc5)[C@@]4(C)CCC23)C1(C)C (stereo partly specified) [DEOXYGEDUNOL ACETATE] | 23.25 | 49.18
26 | Nc1nc2c(ncn2[C@H]2C[C@H](O)[C@@H](CO)O2)c(=O)[nH]1 [DEOXYGUANOSINE] | 85.51 | 90.97
27 | COc1ccc2c(c1)OCC(Cc1ccc(OC)c(OC(C)=O)c1)C2=O (stereo unspecified) [DEOXYSAPPANONE B 7,3'-DIMETHYL ETHER ACETATE] | 122.7 | 148.3
28 | COc1ccc2c(c1)OCC(Cc1ccc(OC)c(OC)c1)C2=O (stereo unspecified) [DEOXYSAPPANONE B TRIMETHYL ETHER] | 174.5 | 150.7
29 | Cc1cc(N)c2ccccc2[n+]1CCCCCCCCCC[n+]1c(C)cc(N)c2ccccc21.[Cl-].[Cl-] [DEQUALINIUM CHLORIDE] | 158.8 | 111.4
30 | COc1ccc(-c2cc(C(F)F)nn2-c2ccc(S(N)(=O)=O)cc2)cc1F [DERACOXIB] | 127.8 | 98.95
31 | CC(C)=CCc1c(O)cc2occ(-c3ccc4c(c3)OCO4)c(=O)c2c1O [DERRUBONE] | 115.1 | 106.9
32 | COc1cc(OC)c2c(OC)c(-c3ccc4c(c3)OCO4)c(=O)oc2c1 [DERRUSNIN] | 141.7 | 115.7
33 | COc1cc(OC)c2c(=O)c(-c3ccc4c(c3)OCO4)coc2c1 [DERRUSTONE] | 132.5 | 94.69
34 | CC1=CC(=O)C2=C(C)CC[C@@H]3[C@H](OC(=O)[C@H]3C)[C@@H]12 [DESACETOXYMATRICARIN] | 129 | 118.5
35 | CNCCCN1c2ccccc2CCc2ccccc21.Cl [DESIPRAMINE HYDROCHLORIDE] | 55.55 | 96.51
36 | Cl.c1ccc2c(c1)CN1CCCC1=N2 [DESOXYPEGANINE HYDROCHLORIDE] | 132 | 113.9
37 | CC(=O)OCC(=O)[C@@]1(O)[C@H](C)C[C@H]2[C@@H]3CCC4=CC(=O)C=C[C@]4(C)[C@@]3(F)[C@@H](O)C[C@@]21C [DEXAMETHASONE ACETATE] | 106 | 88.69
38 | CN(C)CC[C@@H](c1ccc(Cl)cc1)c1ccccn1.O=C(O)/C=C\C(=O)O [DEXCHLORPHENIRAMINE MALEATE] | 117.7 | 103.6
39 | CC(C)NC[C@@H](O)COc1cccc2ccccc12.Cl [DEXPROPRANOLOL HYDROCHLORIDE] | 108.7 | 103.2
40 | Br.COc1ccc2c(c1)[C@]13CCCC[C@@H]1[C@H](C2)N(C)CC3.O [DEXTROMETHORPHAN HYDROBROMIDE] | 49.83 | 78.21
41 | CC(=O)Oc1cccc2c1C(=O)c1c(OC(C)=O)cc(C(=O)O)cc1C2=O [DIACEREIN] | 72.58 | 86.69
42 | C=CCSCC=C [DIALLYL SULFIDE] | 82.5 | 95.82
43 | CC1=NS(=O)(=O)c2cc(Cl)ccc2N1 [DIAZOXIDE] | 91.81 | 91.61
